Source: paper PMC6704710, “Preclinical evaluation of 3D185, a novel potent inhibitor of FGFR1/2/3 and CSF-1R, in FGFR-dependent and macrophage-dominant cancer models” (Journal of Experimental & Clinical Cancer Research : CR, 2019)

Key:
Experiment in all cases: Eurofins kinase panel
Assay type in all cases: biochemical
BMPR2(h) = biological target: T1, BMPR2(h) (Homo sapiens, UniProt Q13873); details: read-out: Inhibition rate (%)
T1 construct: purchased Eurofins (KinaseProfiler)
T1 sequence (Q13873 27-1038): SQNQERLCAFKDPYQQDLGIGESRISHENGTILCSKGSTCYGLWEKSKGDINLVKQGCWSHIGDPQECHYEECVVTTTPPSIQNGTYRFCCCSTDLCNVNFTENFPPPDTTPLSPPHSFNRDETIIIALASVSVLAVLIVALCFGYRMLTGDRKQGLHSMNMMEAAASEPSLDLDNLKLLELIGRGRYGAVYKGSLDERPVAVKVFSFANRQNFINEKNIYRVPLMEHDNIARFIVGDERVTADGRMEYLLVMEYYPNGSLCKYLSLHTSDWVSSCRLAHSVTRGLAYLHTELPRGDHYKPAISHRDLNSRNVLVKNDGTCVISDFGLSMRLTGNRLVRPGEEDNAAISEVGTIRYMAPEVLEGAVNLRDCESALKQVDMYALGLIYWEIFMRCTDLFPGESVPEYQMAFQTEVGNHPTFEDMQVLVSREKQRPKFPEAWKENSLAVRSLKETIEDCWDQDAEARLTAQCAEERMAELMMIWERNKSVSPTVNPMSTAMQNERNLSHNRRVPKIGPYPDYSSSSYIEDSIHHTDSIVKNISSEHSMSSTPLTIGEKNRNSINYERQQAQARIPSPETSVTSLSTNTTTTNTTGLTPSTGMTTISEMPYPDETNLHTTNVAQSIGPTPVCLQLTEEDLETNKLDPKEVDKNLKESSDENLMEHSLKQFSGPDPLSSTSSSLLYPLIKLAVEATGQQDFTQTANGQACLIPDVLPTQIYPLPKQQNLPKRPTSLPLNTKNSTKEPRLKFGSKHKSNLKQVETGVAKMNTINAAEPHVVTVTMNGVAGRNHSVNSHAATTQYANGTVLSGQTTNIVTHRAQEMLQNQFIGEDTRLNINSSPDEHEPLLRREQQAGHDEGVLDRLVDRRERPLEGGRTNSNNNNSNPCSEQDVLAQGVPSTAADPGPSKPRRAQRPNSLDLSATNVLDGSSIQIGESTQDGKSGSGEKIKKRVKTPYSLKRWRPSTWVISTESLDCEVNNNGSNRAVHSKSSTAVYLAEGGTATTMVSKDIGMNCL

CHK2(I157T)(h) = biological target: T2, CHK2(I157T)(h) (Homo sapiens, UniProt O96017, I157T); details: read-out: Inhibition rate (%)
T2 construct: purchased Eurofins (KinaseProfiler)

FGFR3(h) = FGFR3(h) (Homo sapiens, UniProt P22607)
PhKγ1(h) = biological target: T3, PhKγ1(h) (Homo sapiens, UniProt Q16816); details: read-out: Inhibition rate (%)
T3 construct: purchased Eurofins (KinaseProfiler)

SGK(h) = biological target: T4, SGK(h) (Homo sapiens, UniProt O00141); details: read-out: Inhibition rate (%)
T4 construct: purchased Eurofins (KinaseProfiler)
T4 sequence (O00141 1-431): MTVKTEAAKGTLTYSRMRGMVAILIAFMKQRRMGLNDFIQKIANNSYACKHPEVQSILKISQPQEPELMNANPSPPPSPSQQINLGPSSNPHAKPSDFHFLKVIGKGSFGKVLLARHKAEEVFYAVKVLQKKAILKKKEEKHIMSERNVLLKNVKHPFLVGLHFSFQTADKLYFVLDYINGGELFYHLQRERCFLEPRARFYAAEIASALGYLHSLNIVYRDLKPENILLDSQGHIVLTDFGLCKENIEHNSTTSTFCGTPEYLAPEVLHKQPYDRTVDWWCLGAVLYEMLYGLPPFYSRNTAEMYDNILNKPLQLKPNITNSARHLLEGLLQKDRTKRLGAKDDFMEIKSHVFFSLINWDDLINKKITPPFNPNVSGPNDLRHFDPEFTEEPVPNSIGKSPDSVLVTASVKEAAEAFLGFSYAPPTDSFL

Met(Y1248H)(h) = biological target: T5, Met(Y1248H)(h) (Homo sapiens, UniProt P08581, Y1230H); details: read-out: Inhibition rate (%)
T5 construct: purchased Eurofins (KinaseProfiler)

IR(h) = biological target: T6, IR(h) (Homo sapiens, UniProt P06213); details: read-out: Inhibition rate (%)
T6 construct: purchased Eurofins (KinaseProfiler)

MINK(h) = biological target: T7, MINK(h) (Homo sapiens, UniProt Q8N4C8); details: read-out: Inhibition rate (%)
T7 construct: purchased Eurofins (KinaseProfiler)

LIMK1(h) = biological target: T8, LIMK1(h) (Homo sapiens, UniProt P53667); details: read-out: Inhibition rate (%)
T8 construct: purchased Eurofins (KinaseProfiler)

DNA-PK(h) = biological target: T9, DNA-PK(h) (Homo sapiens, UniProt P78527); details: read-out: Inhibition rate (%)
T9 construct: purchased Eurofins (KinaseProfiler)

CHK2(h) = biological target: T10, CHK2(h) (Homo sapiens, UniProt O96017); details: read-out: Inhibition rate (%)
T10 construct: purchased Eurofins (KinaseProfiler)

CaMKIIγ(h) = biological target: T11, CaMKIIγ(h) (Homo sapiens, UniProt Q13555); details: read-out: Inhibition rate (%)
T11 construct: purchased Eurofins (KinaseProfiler)

T5 sequence (P08581 956-1390 Y1230H limits assumed): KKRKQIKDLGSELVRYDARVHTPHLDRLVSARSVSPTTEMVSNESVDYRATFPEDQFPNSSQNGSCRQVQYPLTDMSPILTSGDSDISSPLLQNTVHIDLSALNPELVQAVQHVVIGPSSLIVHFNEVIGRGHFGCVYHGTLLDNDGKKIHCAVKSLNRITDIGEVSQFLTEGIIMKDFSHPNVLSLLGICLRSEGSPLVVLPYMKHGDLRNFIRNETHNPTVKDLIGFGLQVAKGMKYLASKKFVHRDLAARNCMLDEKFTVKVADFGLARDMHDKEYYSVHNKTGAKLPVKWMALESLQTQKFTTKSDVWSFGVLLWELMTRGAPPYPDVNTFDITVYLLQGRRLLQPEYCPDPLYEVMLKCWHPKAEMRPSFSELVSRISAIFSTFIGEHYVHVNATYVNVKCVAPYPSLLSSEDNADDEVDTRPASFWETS
T7 sequence (Q8N4C8 whole entry): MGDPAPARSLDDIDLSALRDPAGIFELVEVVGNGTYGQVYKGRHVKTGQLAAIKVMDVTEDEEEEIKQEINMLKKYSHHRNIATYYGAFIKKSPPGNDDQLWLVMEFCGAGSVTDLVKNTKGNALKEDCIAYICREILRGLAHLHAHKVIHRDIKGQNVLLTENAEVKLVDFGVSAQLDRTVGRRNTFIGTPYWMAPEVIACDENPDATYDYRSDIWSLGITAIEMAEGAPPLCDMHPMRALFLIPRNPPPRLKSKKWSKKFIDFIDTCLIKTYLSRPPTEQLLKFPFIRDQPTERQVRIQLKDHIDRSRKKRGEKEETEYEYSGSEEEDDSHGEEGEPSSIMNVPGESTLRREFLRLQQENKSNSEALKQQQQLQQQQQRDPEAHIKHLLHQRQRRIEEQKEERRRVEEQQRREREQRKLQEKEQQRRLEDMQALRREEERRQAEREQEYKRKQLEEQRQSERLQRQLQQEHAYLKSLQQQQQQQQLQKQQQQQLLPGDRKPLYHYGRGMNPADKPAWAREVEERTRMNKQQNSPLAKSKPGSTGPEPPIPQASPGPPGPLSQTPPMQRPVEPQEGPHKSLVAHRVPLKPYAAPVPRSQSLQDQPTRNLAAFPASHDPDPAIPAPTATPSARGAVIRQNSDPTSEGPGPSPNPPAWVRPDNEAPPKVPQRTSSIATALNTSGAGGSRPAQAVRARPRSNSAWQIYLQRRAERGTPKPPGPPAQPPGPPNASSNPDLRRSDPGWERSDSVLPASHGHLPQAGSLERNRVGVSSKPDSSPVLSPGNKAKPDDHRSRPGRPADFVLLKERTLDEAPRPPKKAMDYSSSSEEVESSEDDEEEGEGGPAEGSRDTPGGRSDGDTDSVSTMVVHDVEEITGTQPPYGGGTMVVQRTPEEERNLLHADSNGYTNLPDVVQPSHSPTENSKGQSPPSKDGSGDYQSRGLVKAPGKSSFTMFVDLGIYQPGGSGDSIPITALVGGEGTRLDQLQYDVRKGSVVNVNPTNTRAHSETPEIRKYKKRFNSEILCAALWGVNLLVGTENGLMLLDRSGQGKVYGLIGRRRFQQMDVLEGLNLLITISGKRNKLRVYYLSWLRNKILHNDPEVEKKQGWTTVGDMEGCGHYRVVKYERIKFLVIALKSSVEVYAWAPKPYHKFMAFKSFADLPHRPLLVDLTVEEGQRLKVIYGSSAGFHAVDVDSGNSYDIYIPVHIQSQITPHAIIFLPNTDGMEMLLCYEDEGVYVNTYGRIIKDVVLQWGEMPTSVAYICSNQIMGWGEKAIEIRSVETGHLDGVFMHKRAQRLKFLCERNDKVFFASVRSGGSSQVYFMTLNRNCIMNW
FGFR3(h), sequence (P22607 23-806): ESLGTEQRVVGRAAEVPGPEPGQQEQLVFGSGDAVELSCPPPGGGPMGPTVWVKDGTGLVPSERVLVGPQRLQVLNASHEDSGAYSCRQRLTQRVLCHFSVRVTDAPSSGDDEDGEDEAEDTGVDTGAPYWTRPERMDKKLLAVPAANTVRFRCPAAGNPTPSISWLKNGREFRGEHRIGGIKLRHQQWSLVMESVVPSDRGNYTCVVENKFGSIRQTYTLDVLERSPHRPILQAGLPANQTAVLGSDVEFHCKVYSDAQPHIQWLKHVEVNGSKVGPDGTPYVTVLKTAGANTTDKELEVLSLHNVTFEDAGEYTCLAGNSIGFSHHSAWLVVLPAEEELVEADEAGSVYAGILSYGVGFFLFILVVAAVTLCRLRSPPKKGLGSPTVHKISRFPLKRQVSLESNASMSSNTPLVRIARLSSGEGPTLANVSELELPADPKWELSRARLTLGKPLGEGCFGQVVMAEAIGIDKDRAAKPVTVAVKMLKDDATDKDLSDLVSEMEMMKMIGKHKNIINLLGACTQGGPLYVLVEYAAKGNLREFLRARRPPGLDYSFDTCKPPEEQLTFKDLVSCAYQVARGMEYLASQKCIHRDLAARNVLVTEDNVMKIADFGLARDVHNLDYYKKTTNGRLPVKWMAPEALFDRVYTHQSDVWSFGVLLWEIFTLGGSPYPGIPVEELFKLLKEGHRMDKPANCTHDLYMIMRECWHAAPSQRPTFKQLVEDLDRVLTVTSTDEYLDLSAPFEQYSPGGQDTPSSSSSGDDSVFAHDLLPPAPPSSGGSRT
T8 sequence (P53667 whole entry): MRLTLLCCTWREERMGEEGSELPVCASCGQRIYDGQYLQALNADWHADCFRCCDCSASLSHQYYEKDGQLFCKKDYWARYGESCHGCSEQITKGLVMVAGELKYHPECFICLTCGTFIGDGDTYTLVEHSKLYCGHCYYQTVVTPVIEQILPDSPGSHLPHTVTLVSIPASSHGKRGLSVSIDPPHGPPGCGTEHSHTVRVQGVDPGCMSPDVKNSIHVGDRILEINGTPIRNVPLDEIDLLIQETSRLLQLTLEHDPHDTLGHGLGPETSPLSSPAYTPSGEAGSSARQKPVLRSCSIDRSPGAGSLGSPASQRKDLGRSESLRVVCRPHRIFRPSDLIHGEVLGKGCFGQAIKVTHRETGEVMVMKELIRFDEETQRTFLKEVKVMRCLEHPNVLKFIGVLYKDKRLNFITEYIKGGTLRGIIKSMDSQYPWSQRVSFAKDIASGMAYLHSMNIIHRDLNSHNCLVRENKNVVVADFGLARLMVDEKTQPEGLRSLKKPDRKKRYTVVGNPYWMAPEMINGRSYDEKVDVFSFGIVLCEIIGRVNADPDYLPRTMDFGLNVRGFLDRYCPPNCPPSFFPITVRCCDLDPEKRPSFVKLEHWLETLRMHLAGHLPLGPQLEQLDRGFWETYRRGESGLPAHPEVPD
T6 sequence (P06213 28-1382): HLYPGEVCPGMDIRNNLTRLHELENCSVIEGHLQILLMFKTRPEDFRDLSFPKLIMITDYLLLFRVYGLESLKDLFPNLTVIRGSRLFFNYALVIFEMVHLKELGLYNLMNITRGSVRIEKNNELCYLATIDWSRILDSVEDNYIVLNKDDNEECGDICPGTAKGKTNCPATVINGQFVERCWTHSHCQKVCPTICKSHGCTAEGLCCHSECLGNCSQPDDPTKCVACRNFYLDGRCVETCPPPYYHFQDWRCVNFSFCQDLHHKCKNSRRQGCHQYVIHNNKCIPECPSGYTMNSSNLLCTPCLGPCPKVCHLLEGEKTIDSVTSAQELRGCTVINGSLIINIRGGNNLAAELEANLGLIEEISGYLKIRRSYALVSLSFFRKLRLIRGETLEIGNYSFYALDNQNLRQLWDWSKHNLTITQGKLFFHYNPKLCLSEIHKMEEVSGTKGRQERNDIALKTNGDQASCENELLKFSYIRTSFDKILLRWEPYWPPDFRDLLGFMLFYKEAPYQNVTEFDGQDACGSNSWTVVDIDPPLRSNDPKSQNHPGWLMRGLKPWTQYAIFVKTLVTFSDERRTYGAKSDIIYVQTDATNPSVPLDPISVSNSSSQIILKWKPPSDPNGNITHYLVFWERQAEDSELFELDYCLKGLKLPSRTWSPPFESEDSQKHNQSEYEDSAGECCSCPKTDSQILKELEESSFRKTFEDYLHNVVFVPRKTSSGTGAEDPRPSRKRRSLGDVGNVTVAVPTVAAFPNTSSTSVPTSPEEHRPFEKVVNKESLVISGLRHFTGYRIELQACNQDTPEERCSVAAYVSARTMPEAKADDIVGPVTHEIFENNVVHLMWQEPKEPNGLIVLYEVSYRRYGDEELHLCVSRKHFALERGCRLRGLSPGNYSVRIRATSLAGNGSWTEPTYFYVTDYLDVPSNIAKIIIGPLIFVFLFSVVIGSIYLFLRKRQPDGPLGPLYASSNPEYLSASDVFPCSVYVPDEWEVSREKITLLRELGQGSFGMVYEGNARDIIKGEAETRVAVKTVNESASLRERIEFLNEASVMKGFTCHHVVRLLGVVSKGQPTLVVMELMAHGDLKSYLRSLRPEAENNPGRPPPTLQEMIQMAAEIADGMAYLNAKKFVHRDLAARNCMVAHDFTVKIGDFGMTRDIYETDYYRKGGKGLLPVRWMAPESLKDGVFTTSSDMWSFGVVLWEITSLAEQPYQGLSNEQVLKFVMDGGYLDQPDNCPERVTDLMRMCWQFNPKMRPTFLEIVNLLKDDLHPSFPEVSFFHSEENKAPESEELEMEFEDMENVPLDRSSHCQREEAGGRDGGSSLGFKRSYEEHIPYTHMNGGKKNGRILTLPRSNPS
T3 sequence (Q16816 whole entry): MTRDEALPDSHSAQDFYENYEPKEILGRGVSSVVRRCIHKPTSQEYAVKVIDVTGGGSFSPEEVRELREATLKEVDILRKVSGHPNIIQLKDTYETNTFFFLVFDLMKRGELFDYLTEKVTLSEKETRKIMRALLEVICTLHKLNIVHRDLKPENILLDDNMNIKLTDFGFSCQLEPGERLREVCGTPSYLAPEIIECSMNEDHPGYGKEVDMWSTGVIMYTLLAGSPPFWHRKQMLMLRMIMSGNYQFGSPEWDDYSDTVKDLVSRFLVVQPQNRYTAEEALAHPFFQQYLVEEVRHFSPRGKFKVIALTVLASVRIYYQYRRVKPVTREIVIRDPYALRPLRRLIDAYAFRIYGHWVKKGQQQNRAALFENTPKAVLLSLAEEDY

COc1cc(OC)c(Cl)c(-c2ccc3c(NC(=O)c4ccc(N5CCNC(C)(C)C5)cc4)n[nH]c3n2)c1Cl [3D185]
inhibition at 0.01 µM (BMPR2(h); 10 nM): 5% | inhibition at 0.1 µM (BMPR2(h); 100 nM): -2% | inhibition at 1 µM (BMPR2(h); 1000 nM): 4% | inhibition at 0.01 µM (CHK2(I157T)(h); 10 nM): -6% | inhibition at 0.1 µM (CHK2(I157T)(h); 100 nM): -5% | inhibition at 1 µM (CHK2(I157T)(h); 1000 nM): -1% | IC50 (FGFR3(h); estimated from 372-kinase panel): < 10 nM | inhibition at 0.01 µM (FGFR3(h); read-out: Inhibition rate (%)): 94% | inhibition at 0.1 µM (FGFR3(h); read-out: Inhibition rate (%)): 99% | inhibition at 1 µM (FGFR3(h); read-out: Inhibition rate (%)): 100% | inhibition at 0.01 µM (PhKγ1(h); 10 nM): -1% | inhibition at 0.1 µM (PhKγ1(h); 100 nM): -9% | inhibition at 1 µM (PhKγ1(h); 1000 nM): -12% | inhibition at 0.01 µM (SGK(h); 10 nM): -4% | inhibition at 0.1 µM (SGK(h); 100 nM): -13% | inhibition at 1 µM (SGK(h); 1000 nM): -7% | inhibition at 0.01 µM (Met(Y1248H)(h); 10 nM): -16% | inhibition at 0.1 µM (Met(Y1248H)(h); 100 nM): 8% | inhibition at 1 µM (Met(Y1248H)(h); 1000 nM): 46% | inhibition at 0.01 µM (IR(h); 10 nM): 16% | inhibition at 0.1 µM (IR(h); 100 nM): 32% | inhibition at 1 µM (IR(h); 1000 nM): 94% | inhibition at 0.01 µM (MINK(h); 10 nM): 28% | inhibition at 0.1 µM (MINK(h); 100 nM): 68% | inhibition at 1 µM (MINK(h); 1000 nM): 90% | inhibition at 0.01 µM (LIMK1(h); 10 nM): 2% | inhibition at 0.1 µM (LIMK1(h); 100 nM): 8% | inhibition at 1 µM (LIMK1(h); 1000 nM): 0% | inhibition at 0.01 µM (DNA-PK(h); 10 nM): 5% | inhibition at 0.1 µM (DNA-PK(h); 100 nM): 2% | inhibition at 1 µM (DNA-PK(h); 1000 nM): 0% | inhibition at 0.01 µM (CHK2(h); 10 nM): 0% | inhibition at 0.1 µM (CHK2(h); 100 nM): 4% | inhibition at 1 µM (CHK2(h); 1000 nM): 11% | inhibition at 0.01 µM (CaMKIIγ(h); 10 nM): -2% | inhibition at 0.1 µM (CaMKIIγ(h); 100 nM): -6% | inhibition at 1 µM (CaMKIIγ(h); 1000 nM): -9%
